According to ChEMBL document CHEMBL3227927, “Synthesis and hypoglycemic activity of pyridyl alcohols” (J Med Chem, 1979):
Calls of active or inactive are those of the source. No cut-off for these calls is given here.

Key:
[1] = system: Rattus norvegicus; assay: Hypoglycemic activity in 48 hrs fasted Charles River rat at 150 mg/kg, po measured at 1 hr relative to control; format: functional
[2] = system: Rattus norvegicus; assay: Hypoglycemic activity in 48 hrs fasted Charles River rat at 150 mg/kg, po measured at 2 hrs relative to control; format: functional
[3] = system: Rattus norvegicus; assay: Hypoglycemic activity in 48 hrs fasted Charles River rat at 150 mg/kg, po measured at 4 hrs relative to control; format: functional
[4] = system: Rattus norvegicus; assay: Hypoglycemic activity in 48 hrs fasted Charles River rat at 150 mg/kg, po measured at 7 hrs relative to control; format: functional, organism-based; design: dose 150 mg/kg
[5] = species: Rattus norvegicus; assay: Toxicity in rat assessed as mortality measured up to 24 hrs; format: organism-based; details: in vivo
[6] = species: Rattus norvegicus; assay: Toxicity in rat assessed as increase in hepatic triglyceride level measured up to 24 hrs; format: organism-based; details: in vivo
[7] = system: Rattus norvegicus; assay: Hypoglycemic activity in 48 hrs fasted Charles River rat at 300 mg/kg, ip measured at 1 hr relative to control; format: functional; details: route intraperitoneal
[8] = system: Rattus norvegicus; assay: Hypoglycemic activity in 48 hrs fasted Charles River rat at 300 mg/kg, ip measured at 2 hrs relative to control; format: functional; details: route intraperitoneal
[9] = system: Rattus norvegicus; assay: Hypoglycemic activity in 48 hrs fasted Charles River rat at 300 mg/kg, ip measured at 4 hrs relative to control; format: functional; details: route intraperitoneal
[10] = system: Rattus norvegicus; assay: Hypoglycemic activity in 48 hrs fasted Charles River rat at 200 mg/kg, po measured at 1 hr relative to control; format: functional
[11] = system: Rattus norvegicus; assay: Hypoglycemic activity in 48 hrs fasted Charles River rat at 200 mg/kg, po measured at 2 hrs relative to control; format: functional
[12] = system: Rattus norvegicus; assay: Hypoglycemic activity in 48 hrs fasted Charles River rat at 200 mg/kg, po measured at 4 hrs relative to control; format: functional
[13] = system: Rattus norvegicus; assay: Hypoglycemic activity in 48 hrs fasted Charles River rat at 150 mg/kg, po measured at 5 hrs relative to control; format: functional
[14] = system: Rattus norvegicus; assay: Hypoglycemic activity in 48 hrs fasted Charles River rat at 300 mg/kg, po measured at 1 hr relative to control; format: functional
[15] = system: Rattus norvegicus; assay: Hypoglycemic activity in 48 hrs fasted Charles River rat at 300 mg/kg, po measured at 2 hrs relative to control; format: functional
[16] = system: Rattus norvegicus; assay: Hypoglycemic activity in 48 hrs fasted Charles River rat at 300 mg/kg, po measured at 4 hrs relative to control; format: functional
[17] = species: Rattus norvegicus; assay: Toxicity in rat assessed as mortality measured at 6 hrs; format: organism-based; details: in vivo
[18] = system: Rattus norvegicus; assay: Hypoglycemic activity in 48 hrs fasted Charles River rat at 260 mg/kg, po measured at 1 hr relative to control; format: functional
[19] = system: Rattus norvegicus; assay: Hypoglycemic activity in 48 hrs fasted Charles River rat at 260 mg/kg, po measured at 2 hrs relative to control; format: functional
[20] = system: Rattus norvegicus; assay: Hypoglycemic activity in 48 hrs fasted Charles River rat at 260 mg/kg, po measured at 4 hrs relative to control; format: functional
[21] = system: Rattus norvegicus; assay: Hypoglycemic activity in 48 hrs fasted Charles River rat at 50 mg/kg measured at 7 hrs relative to control; format: functional, organism-based; design: dose 50 mg/kg
[22] = system: Rattus norvegicus; assay: Toxicity in rat assessed as increase in hepatic triglyceride level at 50 mg/kg measured after 4 hrs relative to control; format: organism-based; design: dose 50 mg/kg; details: in vivo

Molecule Cc1cccnc1CCC(C)(C)O.[O-][Cl+3]([O-])([O-])O has an Activity [1] of 6%, an Activity [2] of -7% and an Activity [3] of -10%.

Work on CC1CCCNC1CCCO.Cl (centres undefined) yielded an Activity [1] of -15%, an Activity [2] of -3% and an Activity [3] of -6%.

In the case of Cc1cccnc1CC(O)C(=O)O.Cl (centres undefined), the Activity [1] is reported as -9%, the Activity [2] is reported as -5% and the Activity [3] is reported as -1%.

With OCCCc1cccnc1 the Activity [1] was 3%, the Activity [2] was -12% and the Activity [3] was -24%. For the same molecule, the Activity [4] was “Active”.

In the case of Cc1cccnc1CO.Cl, the Activity [1] is reported as -9%, the Activity [2] is reported as 0% and the Activity [3] is reported as 3%.

CC(=O)OCCCc1ncccc1C was tested, and the Activity [1] was 21%, the Activity [2] was -34% and the Activity [3] was -73%. For the same molecule, the Activity [5] was “Toxic” and the Activity [6] was “Toxic”.

In the case of Cc1cccnc1C(=O)O, the Activity [7] is reported as -8%, the Activity [8] is reported as -9% and the Activity [9] is reported as -15%.

CCCCNC(=O)NS(=O)(=O)c1ccc(C)cc1 [TOLBUTAMIDE] gave an Activity [10] of 28%, an Activity [11] of 47% and an Activity [12] of 48%.

Work on Cc1cccnc1CC(C)O.Cl (centres undefined) yielded an Activity [1] of 3%, an Activity [2] of -3% and an Activity [3] of -12%.

With Cc1cccnc1CCO the Activity [1] was -8%, the Activity [2] was -14% and the Activity [3] was 8%.

In the case of Cc1cccnc1C.Cl, the Activity [1] is reported as 0%, the Activity [2] is reported as -5% and the Activity [3] is reported as 8%.

Molecule Cc1cnc(CO)c(C)c1.Cl has an Activity [1] of -12%, an Activity [2] of -17% and an Activity [3] of -1%. The Activity [13] was -9%.

Cc1cnc(CCCO)c(C)c1.Cl gave an Activity [1] of 27%, an Activity [2] of -39% and an Activity [3] of -72%. The Activity [5] was “Toxic” and the Activity [6] was “Toxic”.

For OC(Cc1ccccn1)C(Cl)(Cl)Cl (centres undefined), the Activity [14] was 24%, the Activity [15] was 40% and the Activity [16] was 101%.

Molecule Cc1cc2ccccc2nc1CCCO.Cl has an Activity [1] of 16%, an Activity [2] of -9% and an Activity [3] of -10%.

Work on Cc1ncccc1CO.Cl yielded an Activity [1] of -3%, an Activity [2] of 1% and an Activity [3] of -11%.

With Cc1ncccc1CCCO.[O-][Cl+3]([O-])([O-])O the Activity [1] was -4%, the Activity [2] was -8% and the Activity [3] was -1%.

OCc1cccnc1 [NICOTINYL ALCOHOL] showed an Activity [1] of 11%, an Activity [2] of -3% and an Activity [3] of -19%.

Molecule Cc1cccnc1CCCS has an Activity [1] of -9%, an Activity [2] of -14% and an Activity [3] of -18%.

For Cc1cccnc1CCCCO, the Activity [1] was -9%, the Activity [2] was -9% and the Activity [3] was 0%.

Cc1cccnc1CCC(=O)O was tested, and the Activity [1] was 5%, the Activity [2] was -28% and the Activity [3] was -85%. The Activity [13] was -90%, the Activity [17] was “Toxic” and the Activity [5] was “Toxic”. For the same molecule, the Activity [6] was “Toxic”.

Cc1ccc(CCCO)nc1.[O-][Cl+3]([O-])([O-])O was tested, and the Activity [18] was 0%, the Activity [19] was -1% and the Activity [20] was 18%.

In the case of CC(=O)Cc1ncccc1C, the Activity [1] is reported as -12%, the Activity [2] is reported as -14% and the Activity [3] is reported as -8%.

COCCCc1ncccc1C gave an Activity [1] of -15%, an Activity [2] of -14% and an Activity [3] of -29%. The Activity [13] was -52%, the Activity [5] was “Toxic” and the Activity [6] was “Toxic”.

For Cc1ccc[n+](C)c1CCCO.[I-], the Activity [1] was -1%, the Activity [2] was 3% and the Activity [3] was -14%.

C[n+]1cccc(CCCO)c1.[I-] showed an Activity [1] of -13%, an Activity [2] of -14% and an Activity [3] of -12%.

OCCCc1ccncc1 gave an Activity [1] of 17%, an Activity [2] of 14% and an Activity [3] of 33%.

Molecule Cc1cccnc1/C=C/C(=O)O has an Activity [1] of -5%, an Activity [2] of 4% and an Activity [3] of 23%.

In the case of OCCCc1ccccn1, the Activity [2] is reported as 9%, the Activity [3] is reported as 46% and the Activity [13] is reported as 42%.

Work on Cc1cccnc1CC(O)C(Cl)(Cl)Cl.Cl (centres undefined) yielded an Activity [1] of -16%, an Activity [2] of -29% and an Activity [3] of -16%.

Molecule Cc1ccc[n+]([O-])c1CCCO has an Activity [1] of -6%, an Activity [2] of -3% and an Activity [3] of -8%.

For OCc1ccncc1 [PYRIDINE 4-METHANOL], the Activity [1] was 4%, the Activity [2] was 0% and the Activity [3] was -4%.

In the case of Cc1cccnc1CCCO, the Activity [1] is reported as -22%, the Activity [2] is reported as -18% and the Activity [3] is reported as -68%. For the same molecule, the Activity [13] was -87%, the Activity [21] was “Active” and the “fold change (FC)” value [22] was 10. For the same molecule, the Activity [5] was “Toxic”.

With OCc1ccccn1 [PICONOL] the Activity [1] was 4%, the Activity [2] was 6% and the Activity [3] was 2%.
